Like-named read-outs stand apart in the source and are kept apart here.
What was measured:
[1] = pKa by titration with NaOH; type: physicochemical
Description: The pKa may be measured by titrating the compound with NaOH and finding the point at which half of the compound is neutralized. The pH at this point is the pKa.

[2] = ether partition coefficient at pH 7.2; type: physicochemical
Protocol: This property in conjunction with the chloroform coefficient is a measure of the lipid solubility of this compound. This is a critical feature since the compound must be readily absorbed by the lipid materials in the eye and be available for intimate contact with carbonic anhydrase so as to control its activity. This property is measured by preparing an aqueous solution of the compound at pH 7.2 and shaking the solution with an equal volume of ether until equilibrium is achieved in the system. An ether layer and an aqueous layer are formed, separated, and each analyzed for its content of the compound. The coefficient is the ratio of the amount of the compound in the ether layer to the amount of the compound in the aqueous layer. See, e.g., Maren, J. Pharm. […] Therap. Vol. 130, p.

[3] = chloroform partition coefficient at pH 7.2; type: physicochemical
Protocol: Another critical property necessary in the inhibitors employed in this invention is the chloroform partition coefficient which must be at least 0.01. This property also relates to the lipid solubility of the compound employed and it is measured as described above with respect to ether. The procedure is the same as that described above except that chloroform is employed in place of ether.

carbonic anhydrase = carbonic anhydrase (Homo sapiens, UniProt P00918); assay: dissociation constant against carbonic anhydrase; type: biochemical
Description: The dissociation constant is the concentration of the compound that will inhibit one-half of the carbonic anhydrase in a test system wherein the conditions are so arranged that the compound is present in excess of the carbonic anydrase.

[4] = first order rate constant for penetration through living rabbit cornea; type: in vivo
Protocol: Still another critical property of the inhibitor compounds employed in this invention is that the compound must have a first order rate constant for penetration of the compound through a living rabbit cornea of at least 0.005 hr^-1. This property is important in that it sets a standard for a speed in which the inhibitor will pass through the cornea to the interior of the eye and be available to inhibit the activity of carbonic anhydrase in that location. This is measured by placing a solution of the compound (about 0.5 ml) on the cornea of the living, lightly anesthetized rabbit. The lids are held by light hemostats in such a way as to create a well to hold the solution so that a steady state concentration is achieved. At timed intervals, samples are withdrawn from the anterior chamber of the rabbit and the fluid analyzed for the concentration of drug. The analyses are done by the method of Maren, supra. The data are treated to yield the first order rate constants which are cited herein.

injury to the cornea = type: in vivo; details: 2-5% solution
Description: Still another critical property of the compounds employed in this invention is that they be pharmaceutically acceptable and not be injurious to the cornea being treated.

stability in solution = type: physicochemical
Description: The final property which is necessary for a compound used in this invention is that it be stable against decomposition in solution and in contact with the cornea. This property may be tested by dissolving the compound in aqueous solution and in solution containing corneal tissue to determine whether the compound has remained stable or has decomposed into other materials.

[5] = topical administration of prior art inhibitors, intraocular pressure; type: in vivo
solubility in water = details: for ability to form an aqueous solution of sufficient concentration for topical use: near neutral pH
[6] = Foss 1955; cited from earlier work

Row | Compound | pKa ([1]; read-out: pKa) | ether partition coefficient [2] | chloroform partition coefficient [3] | in vivo rabbit cornea penetration rate constant [4] [h⁻¹] | injury or clouding of the cornea (injury to the cornea) | stability in solution (stability in solution) | pKa [1] | reduction of intraocular pressure by topical application [5] | ability to form an aqueous solution of sufficient concentration for topical use (solubility in water) | other results
1 | Cn1nc(S(N)(=O)=O)sc1=NC(=O)C(Cl)(Cl)Cl [trichloromethazolamide, 2-trichloroacetylimino-3-methyl-Δ^2-1,3,4-thiadiazoline-5-sulfonamide] | 7 | 56 | 4 | 0.063 | does not injure or cloud the cornea | stable in solution for at least six hours |  |  |  | Ki (carbonic anhydrase): 20 nM
2 | CC(=O)/N=c1/sc(S(N)(=O)=O)nn1C [Methazolamide, 2-acetylimino-3-methyl-Δ^2-1,3,4-thiadiazoline-5-sulfonamide] |  |  |  |  |  |  | 7.4 | not reduced except to a very slight extent in one of the series of tests | cannot be made into a neutral solution with a sufficiently high concentration | 
3 | Cn1nc(S(N)(=O)=O)sc1=NC(=O)C(F)(F)F [trifluoromethazolamide, 2-trifluoroacetylimino-3-methyl-Δ^2-1,3,4-thiadiazoline-5-sulfonamide] |  | 6.0 | 0.3 | 0.014 | does not injure or cloud the cornea | stable in solution for two hours | 6.6 |  |  | 
4 | CCOc1ccc2nc(S(N)(=O)=O)sc2c1 [ethoxzolamide, 6-ethoxy-benzothiazole-2-sulfonamide] |  |  |  |  |  |  | 8.1 | ineffective |  | solubility (solubility in water; water): ≤ 40 µg/mL
5 | NS(=O)(=O)c1nnc(-c2ccccc2Cl)s1 [2-orthochlorophenylthiadiazole-5-sulfonamide] | 7.3 |  |  | 0.3 |  | stable in solution |  |  |  | 
6 | CC(=O)Nc1nnc(S(N)(=O)=O)s1 [acetazolamide, 2-acetylamino-1,3,4-thiadiazole-5-sulfonamide] |  |  |  |  |  |  |  |  | cannot be made into a water solution below pH 8 at concentrations sufficiently high | lowering intraocular pressure by topical administration [6]: completely unsuitable
